Measured values as given in patent US8003648B2, “Heterocyclic GPR40 modulators” (Amgen Inc., priority 2006, dated 2011).

Biological target: T1, human GPR40 (Homo sapiens, UniProt O14842)
T1 construct: host or cells: CHO cells
Assay: Cell-based aequorin assay using human GPR40
Conditions: activation of human GPR40; CHO cells stably transfected with GPR40 and Aequorin; 0.01% HSA; aequorin luminescence
Experimental: Cell-based aequorin assays were employed to characterize the modulatory activity of compounds on the GPR40 signaling pathway. In an exemplary assay, CHO cells were stably transfected with both GPR40 and Aequorin (Euroscreen). Cells were detached from the tissue culture dish with 2 mL of trypsin (0.25% (w/v)). Trypsinization was halted with 28 mL of Hanks Buffered Salt Solution containing 20 mM Hepes (H/HBSS) and 0.01% fatty acid-free human serum albumin (HSA). Coelantrazine is added to 1 ug/mL, and the cells were incubated for 2 hours at room temperature. Compounds were dissolved in DMSO for preparation of 10 mM stock solutions. Compounds were diluted in H/HBSS containing 0.01% HSA. Serial dilutions of the test compounds were prepared to determine dose response.
Aequorin luminescence measurements were made using an EG&G Berthold 96-well luminometer, and the response was measured over a 20 second interval after cells and compounds were mixed. The maximum relative light units was plotted to determine dose response. The EC50 (effective concentration to reach 50% maximal response) was determined from the dose response plot.
Table 1 presents representative data (EC50 values) obtained for exemplary compounds of the invention for the activation of human GPR40. […]

T1 sequence (O14842 whole entry): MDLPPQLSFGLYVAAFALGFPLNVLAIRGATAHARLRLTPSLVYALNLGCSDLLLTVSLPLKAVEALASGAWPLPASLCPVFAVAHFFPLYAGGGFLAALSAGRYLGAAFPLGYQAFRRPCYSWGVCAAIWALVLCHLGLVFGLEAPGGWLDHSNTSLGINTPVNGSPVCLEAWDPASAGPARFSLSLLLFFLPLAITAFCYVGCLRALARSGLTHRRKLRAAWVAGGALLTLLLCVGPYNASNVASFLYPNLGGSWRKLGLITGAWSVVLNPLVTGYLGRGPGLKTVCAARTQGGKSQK

| SMILES | EC50 |
| --- | --- |
| CC1(C)CCC=C1c1ccc(COc2ccc([C@H](CC(=O)O)c3ccon3)cc2)cc1OC(F)(F)F [Example 36, (S)-3-(4-(4-(5,5-Dimethylcyclopent-1-enyl)-3-(trifluoromethoxy)benzyloxy)phenyl)-3-(isoxazol-3-yl)propanoic acid] | 100 to 1000 nM |
| CC(C)c1ccc(COc2ccc([C@H](CC(=O)O)c3ccon3)cc2)cc1OC(F)(F)F [Example 37, (S)-3-(4-(4-Isopropyl-3-(trifluoromethoxy)benzyloxy)phenyl)-3-(isoxazol-3-yl)propanoic acid] | 10 to 100 nM |
| CC1(C)CCC=C1c1cc(COc2ccc([C@H](CC(=O)O)c3ccon3)cc2)ccc1OC(F)(F)F [Example 38, (S)-3-(4-(3-(5,5-Dimethylcyclopent-1-enyl)-4-(trifluoromethoxy)benzyloxy)phenyl)-3-(isoxazol-3-yl)propanoic acid] | 10 to 100 nM |
| Cc1cc([C@@H](CC(=O)O)c2ccc(OCc3cccc(-c4ccc(C(F)(F)F)cc4)c3)cc2)no1 [Example 39, (S)-3-(4-(3-(4-(Trifluoromethyl)phenyl)benzyloxy)phenyl)-3-(5-methylisoxazol-3-yl)propanoic acid] | 100 to 10000 nM |
| CC1(C)CCC(C)(C)c2cc(COc3ccc([C@H](CC(=O)O)c4ccon4)cc3)ccc21 [Example 40, (S)-3-(Isoxazol-3-yl)-3-(4-((5,5,8,8-tetramethyl-5,6,7,8-tetrahydronaphthalen-2-yl)methoxy)phenyl)propanoic acid] | 10 to 100 nM |
| CC1(C)CCC(C)(C)c2cc(COc3ccc([C@@H](CC(=O)O)c4ccon4)cc3)ccc21 [Example 41, (R)-3-(Isoxazol-3-yl)-3-(4-((5,5,8,8-tetramethyl-5,6,7,8-tetrahydronaphthalen-2-yl)methoxy)phenyl)propanoic acid] | 1000 to 10000 nM |
| CC1(C)CCC(C)(C)c2cc(COc3ccc(C(CC(=O)O)C4=NOCC4)cc3)ccc21 (stereo not drawn) [Example 42, 3-(4,5-Dihydroisoxazol-3-yl)-3-(4-((5,5,8,8-tetramethyl-5,6,7,8-tetrahydronaphthalen-2-yl)methoxy)phenyl)propanoic acid] | 100 to 1000 nM |
| CCOCCOc1cc(COc2ccc([C@H](CC(=O)O)c3ccon3)cc2)c(Br)cc1C(C)(C)C [Example 46, (S)-3-(4-(2-Bromo-4-tert-butyl-5-(2-ethoxyethoxy)benzyloxy)phenyl)-3-(isoxazol-3-yl)propanoic acid] | 100 to 1000 nM |
| O=C(O)C[C@@H](c1ccc(OCCOc2ccc(C(F)(F)F)cc2)cc1)c1ccon1 [Example 47, (S)-3-(Isoxazol-3-yl)-3-(4-(2-(4-(trifluoromethyl)phenoxy)ethoxy)phenyl)propanoic acid] | 100 to 1000 nM |
| O=C(O)C[C@@H](c1ccc(OCCCOc2ccc(C(F)(F)F)cc2)cc1)c1ccon1 [Example 48] | 100 to 1000 nM |
| O=C(O)C[C@@H](c1ccc(OCCCCOc2ccc(C(F)(F)F)cc2)cc1)c1ccon1 [Example 49] | 100 to 1000 nM |
| Cc1oc(-c2ccc(C(F)(F)F)cc2)nc1COc1ccc([C@H](CC(=O)O)c2ccon2)cc1 [Example 50, (S)-3-(Isoxazol-3-yl)-3-(4-((5-methyl-2-(4-(trifluoromethyl)phenyl)oxazol-4-yl)methoxy)phenyl)propanoic acid] | 100 to 1000 nM |
| Cc1nc(-c2ccc(C(F)(F)F)cc2)oc1COc1ccc([C@H](CC(=O)O)c2ccon2)cc1 [Example 51, (S)-3-(Isoxazol-3-yl)-3-(4-((4-methyl-2-(4-(trifluoromethyl)phenyl)oxazol-5-yl)methoxy)phenyl)propanoic acid] | 100 to 1000 nM |
| Cc1oc(-c2ccc(C(F)(F)F)cc2)cc1COc1ccc([C@H](CC(=O)O)c2ccon2)cc1 [Example 52, (S)-3-(Isoxazol-3-yl)-3-(4-((2-methyl-5-(4-(trifluoromethyl)phenyl)furan-3-yl)methoxy)phenyl)propanoic acid] | 10 to 100 nM |
| Cc1oc(-c2ccc(Cl)cc2)cc1COc1ccc([C@H](CC(=O)O)c2ccon2)cc1 [Example 53, (S)-3-(4-((5-(4-Chlorophenyl)-2-methylfuran-3-yl)methoxy)phenyl)-3-(isoxazol-3-yl)propanoic acid] | 10 to 100 nM |
| CCN(CC)Cc1ccc(-c2nc(C)c(COc3ccc([C@H](CC(=O)O)c4ccon4)cc3)s2)cc1 [Example 54, (S)-3-(4-((2-(4-((Diethylamino)methyl)phenyl)-4-methylthiazol-5-yl)methoxy)phenyl)-3-(isoxazol-3-yl)propanoic acid] | 1000 to 10000 nM |
| Cc1nc(-c2ccc(CCCO)cc2)sc1COc1ccc([C@H](CC(=O)O)c2ccon2)cc1 [Example 55, (S)-3-(4-((2-(4-(3-Hydroxypropyl)phenyl)-4-methylthiazol-5-yl)methoxy)phenyl)-3-(isoxazol-3-yl)propanoic acid] | 1000 to 10000 nM |
| CCCCc1ccc(-c2cc(COc3ccc([C@H](CC(=O)O)c4ccon4)cc3)c(C)o2)cc1 [Example 56] | 100 to 1000 nM |
| Cc1nc(-c2ccc(Cl)cc2)sc1COc1ccc([C@H](CC(=O)O)c2ccon2)cc1 [Example 57, (S)-3-(Isoxazol-3-yl)-3-(4-((4-methyl-2-(4-chlorophenyl)thiazol-5-yl)methoxy)phenyl)propanoic acid] | 10 to 100 nM |
| Cc1ccc(-c2nc(C)c(COc3ccc([C@H](CC(=O)O)c4ccon4)cc3)s2)cc1 [Example 58, (S)-3-(Isoxazol-3-yl)-3-(4-((4-methyl-2-(4-methylphenyl)thiazol-5-yl)methoxy)phenyl)propanoic acid] | 10 to 100 nM |
| Cc1ccc(-c2nc(C)c(COc3ccc([C@@H](CC(=O)O)c4ccon4)cc3)s2)cc1 [Example 59, (R)-3-(Isoxazol-3-yl)-3-(4-((4-methyl-2-(4-methylphenyl)thiazol-5-yl)methoxy)phenyl)propanoic acid] | 1000 to 10000 nM |
| CCCCc1ccc(-c2ccc(COc3ccc([C@H](CC(=O)O)c4ccon4)cc3)s2)cc1 [Example 60, (3S)-3-(4-(((5-(4-butylphenyl)-2-thienyl)methyl)oxy)phenyl)-3-(3-isoxazolyl)propanoic acid] | 10 to 100 nM |
| O=C(O)C[C@@H](c1ccc(OCc2ccc(-c3ccc(C(F)(F)F)cc3)s2)cc1)c1ccon1 [Example 61, (3S)-3-(3-Isoxazolyl)-3-(4-(((5-(4-(trifluoromethyl)phenyl)-2-thienyl)methyl)oxy)phenyl)propanoic acid] | 10 to 100 nM |
| Cc1cc(-c2ccc(C(F)(F)F)cc2)sc1COc1ccc([C@H](CC(=O)O)c2ccon2)cc1 [Example 62, (3S)-3-(3-Isoxazolyl)-3-(4-(((3-methyl-5-(4-(trifluoromethyl)phenyl)-2-thienyl)methyl)oxy)phenyl)propanoic acid] | 10 to 100 nM |
| O=C(O)C[C@@H](c1ccc(OCc2noc(-c3ccccc3)n2)cc1)c1ccon1 [Example 63] | 1000 to 10000 nM |
| COc1ccccc1-c1nc(COc2ccc([C@H](CC(=O)O)c3ccon3)cc2)no1 [Example 64] | 1000 to 10000 nM |
| O=C(O)C[C@@H](c1ccc(OCc2noc(-c3ccc(C(F)(F)F)cc3)n2)cc1)c1ccon1 [Example 65] | 1000 to 10000 nM |
| O=C(O)C[C@@H](c1ccc(OCc2noc(-c3cccc(C(F)(F)F)c3)n2)cc1)c1ccon1 [Example 66] | 1000 to 10000 nM |
| O=C(O)C[C@@H](c1ccc(OCc2nc(-c3ccccc3)no2)cc1)c1ccon1 [Example 67] | 1000 to 10000 nM |
| O=C(O)C[C@@H](c1ccc(OCc2nc(-c3cccc(C(F)(F)F)c3)no2)cc1)c1ccon1 [Example 68] | 1000 to 10000 nM |
